In US20250339409A1, “USES OF PAN BET INHIBITORS” (VYNE THERAPEUTICS INC., priority 2021, published 2025):

Tested on: IL-1β, IL-6, IL-8, IL-17, IL-18, IL-23, IL-36 and TNF-α
Experiment: Serum pro-inflammatory cytokine assays (Luminex, ELISA) in the imiquimod model
Type: in vivo, female Balb/c mice
Conditions: imiquimod-induced mice
Procedure: Immediately after the TEWL measurements on D14, mice are maintained under gas anesthesia and blood is taken from each mouse by intracardiac puncture. Blood samples are placed at +4° C. for 20 to 30 minutes before being centrifuged at 3000 rpm and +4° C. for 20 minutes. Serum is collected, frozen at −20° C. and then stored at −80° C. awaiting serum biomarkers assays (cytokines).
Assays of the 8 pro-inflammatory cytokines IL-1β, IL-6, IL-8, IL-17, IL-18, IL-23, IL-36 and TNF-α associated with psoriasis and other inflammatory diseases is performed on the isolated and frozen serum samples from blood collected at the end of the experiment on mice of the 7 experimental groups 1 to 7.
The Luminex® technique using magnetic beads technology and ProcartaPlex® immunoassay kit from the Invitrogen division of Thermofisher Scientific is used to perform the assays of the 7 multiplexed cytokines IL-1β, IL-6, IL-8, IL-17, IL-18, IL-23, and TNF-α. Analyte-specific antibodies for the 7 cytokines is pre-coated onto color-coded magnetic microparticles. Microparticles, standards and serum samples (non-diluted as recommended in the instruction manual) is pipetted into wells and the immobilized antibodies bind the analytes of interest. After washing away any unbound substances, a biotinylated antibody cocktail specific to the analytes of interest is added to each well. Following a wash to remove any unbound biotinylated antibody, streptavidin-phycoerythrin conjugate (Streptavidin-PE), which binds to the biotinylated antibody, is added to each well. A final wash removes unbound Streptavidin-PE and the microparticles is resuspended in buffer and read using a Bio-Rad Bio-Plex 200 Analyzer. A magnet in the analyzer captures and holds the superparamagnetic microparticles in a monolayer. Two spectrally distinct Light Emitting Diodes (LED) illuminate the microparticles. One LED identifies the analyte detected and the second LED determines the magnitude of the PE-derived signal, which is in direct proportion to the amount of the analyte bound. Each well is imaged with a Charged Coupled Device (CCD) camera. A representative standard curve from the 7 cytokines is diluted in a serial fourfold steps in specific standard buffer. Each standard, control and serum sample is analyzed in duplicate.
Quantitative sandwich Enzyme-Linked ImmunoSorbent Assay (ELISA) using mouse IL-36 immunoassay kit from the Invitrogen division of Thermofisher Scientific is used to perform the assay. A purified anti-mouse polyclonal antibody against the specific antigen IL-36 pre-coated onto a microplate is used. Standard, control, and serum samples, as recommended in the instruction manual, are pipetted into the wells and any mouse specific antigen present is bound by the immobilized antibody. After washing away any unbound substances, a biotin-conjugated anti-mouse IL-36 antibody is incubated in each well. Then, after washing, streptavidin-Horseradish Peroxidase (HRP) complex is added to the wells, allowing non-covalent biological interaction with biotin. Following several washes to remove any unbound complex, a TetraMethylBenzidine (TMB) substrate solution is added to the wells. The enzyme reaction yields a blue product that turns yellow when the stop solution is added. The intensity of the colour is measured at 450 nm and 570 nm using a microplate reader. The values of 570 nm are subtracted from those of 450 nm and data is in proportion to the amount of […] bound in the initial step. The serum samples values are then read off the standard curves. A representative standard curve from IL-36 is diluted in a serial two folds step in assay buffer. Each standard, control and serum sample is analyzed in duplicate.

## Cn1cc(-c2cccc(O)c2Oc2ccccc2)c2cc[nH]c2c1=O [BETi1]
D14, listed as BETi1 0.001%
  Inflammatory Biomarkers, Mean score values, IL-1β: 49.00 pg/mL
  Inflammatory Biomarkers, Mean score values, IL-6: 123.25 pg/mL
  Inflammatory Biomarkers, Mean score values, IL-8: 41.82 pg/mL
  Inflammatory Biomarkers, Mean score values, IL-17: 74.77 pg/mL
  Inflammatory Biomarkers, Mean score values, IL-18: 241.77 pg/mL
  Inflammatory Biomarkers, Mean score values, IL-23: 51.02 pg/mL
  Inflammatory Biomarkers, Mean score values, IL-36: 65.63 pg/mL
  Inflammatory Biomarkers, Mean score values, TNF-α: 36.20 pg/mL
D14, listed as BETi1 0.1%
  Inflammatory Biomarkers, Mean score values, IL-1β: 24.31 pg/mL
  Inflammatory Biomarkers, Mean score values, IL-6: 56.29 pg/mL
  Inflammatory Biomarkers, Mean score values, IL-8: 21.40 pg/mL
  Inflammatory Biomarkers, Mean score values, IL-17: 25.08 pg/mL
  Inflammatory Biomarkers, Mean score values, IL-18: 138.90 pg/mL
  Inflammatory Biomarkers, Mean score values, IL-23: 20.66 pg/mL
  Inflammatory Biomarkers, Mean score values, IL-36: 26.91 pg/mL
  Inflammatory Biomarkers, Mean score values, TNF-α: 18.27 pg/mL
D14, listed as BETi1 1.0%
  Inflammatory Biomarkers, Mean score values, IL-1β: 39.46 pg/mL
  Inflammatory Biomarkers, Mean score values, IL-6: 96.09 pg/mL
  Inflammatory Biomarkers, Mean score values, IL-8: 23.50 pg/mL
  Inflammatory Biomarkers, Mean score values, IL-17: 54.13 pg/mL
  Inflammatory Biomarkers, Mean score values, IL-18: 202.85 pg/mL
  Inflammatory Biomarkers, Mean score values, IL-23: 33.19 pg/mL
  Inflammatory Biomarkers, Mean score values, IL-36: 52.58 pg/mL
  Inflammatory Biomarkers, Mean score values, TNF-α: 25.05 pg/mL
D14, listed as BETi10.01%
  Inflammatory Biomarkers, Mean score values, IL-1β: 32.62 pg/mL
  Inflammatory Biomarkers, Mean score values, IL-6: 74.31 pg/mL
  Inflammatory Biomarkers, Mean score values, IL-8: 30.82 pg/mL
  Inflammatory Biomarkers, Mean score values, IL-17: 33.44 pg/mL
  Inflammatory Biomarkers, Mean score values, IL-18: 146.86 pg/mL
  Inflammatory Biomarkers, Mean score values, IL-23: 30.04 pg/mL
  Inflammatory Biomarkers, Mean score values, IL-36: 30.38 pg/mL
  Inflammatory Biomarkers, Mean score values, TNF-α: 22.16 pg/mL
